The text below walks through data of US5891679A, “TNF-alpha muteins and a process for preparing them” (priority 1993, dated 1999).

Experiment [1] has as its system Trypanosoma brucei brucei. The experiment is described as follows: In vitro trypanocidal assay, T. brucei brucei. Format: cell-based. Conditions: for % inhibition of trypanocidal activity: lectin 10 μg/ml; for effect on trypanocidal activity of TNF-α / tip peptide: preincubation or cotreatment with the substance; for Δ: % inhibition of trypanocidal activity by the addition of the p55 hTNFα receptor protein: p55 5 μg/ml. How it is done: The Trypanosoma brucei brucei AnTat 1.1 (EATRO 1125) pleomorphic bloodstream form was kindly provided to us by Dr. N. Van Meirvenne of the Institute for Tropical Medecine, Antwerp, Belgium, and the Trypanosoma brucei rhodesiense Trp 11 pleomorphic bloodstream form was kindly provided to us by Dr. E. Bajyana Songa (Dept. Molecular Biology, Free University of Brussels, Belgium)
After 5 h of incubation, the number of live (=moving) parasites was assessed (counting chamber) and compared the control wells in which only incubation medium was added to the trypanosomes. […] All treatments were done in quadruplicate and all reported in vitro trypanolysis experiments were repeated at least 3 times.

The next experiment has as its system L929 cells. The experiment is described as follows: L929 cell killing (cytotoxic/cytolytic/tumoricidal) assay. Format: cell-based, mouse. The settings on record: for effect on mTNF-α tumoricidal (cytolytic) activity: preincubation of mTNF-α with the substance; for Δ: % inhibition of tumoricidal activity by the addition of the p55 hTNFα receptor protein: p55 5 μg/ml. Here is the method: L929 fibrosarcoma cells were obtained from the Rega Institute, Leuven, Belgium.
After 18 h of culture at 37° C., viability of the cell cultures was assessed by dye uptake analysis. […] The plates were read spectrophotometrically at 577 nm with a Titertek multiscan MCC340 ELISA Reader (Flow Laboratories, McLean, Va.).

The subject of experiment [2] is human interleukin-6 (IL6). The experiment is described as follows: IL6 production by hMVECb cells. Format: cell-based. The settings on record: 24 hours. How it is done: Subsequently, the IL6 concentration in the supernatant of the cells was assessed using a commercially available hIL6 ELISA kit (Medgenix, Belgium).
For experiment [3], the system named is human interleukin 8 (IL8). The experiment is described as follows: IL8 production by hMVECb cells. Format: cell-based.

“Also recorded” adds a separate entry of the source. Bridges are numbered along the chain shown (N, C = ends). The star is where a group is joined. Biotin = O=C1N[C@H]2[C@H](CS[C@H]2CCCCC(=O)*)N1

“Bio-GG-C-TPEGAA-C (Biotin-GGCTPEGAAC-NH2; cysteine pairing not given here) [mutpep 5]”: the trypanocidal activity entry in experiment [1] (T. brucei brucei) is given as “lost their trypanocidal activity”.

As for “Bio-GG-C-TPAGAE-C (Biotin-GGCTPAGAEC-NH2; cysteine pairing not given here) [mutpep 3]”, the trypanocidal activity result in experiment [1] (T. brucei brucei) is recorded as “lost their trypanocidal activity”.

Turning to Bio-GG-CGQRETPEGAEAKPWYC [hTNFα-tip], the trypanocidal activity entry in experiment [1] (T. brucei brucei) is recorded as “shows similar results”.

Take “Bio-GG-C - - - - APEGAE - - - - - C (Biotin-GGCAPEGAEC-NH2; cysteine pairing not given here) [mutpep 1]”: the trypanocidal activity result in experiment [1] (T. brucei brucei) is “lost their trypanocidal activity”.

Bio-GG-EGAELKPWY [subpep 2]: in experiment [1] (T. brucei brucei), the trypanocidal activity entry is “strongly reduced trypanocidal activity”.

For “Bio-GG-C-TAEGAE-C (Biotin-GGCTAEGAEC-NH2; cysteine pairing not given here) [mutpep 2]”, the trypanocidal activity entry in experiment [1] (T. brucei brucei) is recorded as “fully or even more active”.

Consider “Bio-GG-C-TPEGAE-C (Biotin-GGCTPEGAEC-NH2; cysteine pairing not given here) [subpep 1]”, for which, in experiment [1] (T. brucei brucei), the trypanocidal activity result is listed as “full trypanocidal activity”.

For the molecule “Bio-GG-C-TPEAAE-C (Biotin-GGCTPEAAEC-NH2; cysteine pairing not given here) [mutpep 4]”, the trypanocidal activity result in experiment [1] (T. brucei brucei) is “fully or even more active”.

Take “GNA: lectin Galanthus nivalis agglutinin [reference compound]”: the “% inhibition of trypanocidal activity” value in experiment [1] (mTNF-α 1.000 pg/ml) is 5 ± 3%; in experiment [1] (mTNF-α 10.000 pg/ml) it was 5 ± 2%; in experiment [1] (mTNF-α 100 pg/ml) it was 0 ± 1%; in experiment [1] (mTNF-α 100.000 pg/ml), 3 ± 2%; in experiment [1] (mTNF-α 1.000.000 pg/ml), 2 ± 1%. Further, in experiment [1], the “effect on trypanocidal activity of TNF-α / tip peptide” value (shortened to “effect … of TNF-α / tip peptide”) is “did not have any effect”. Further, in the experiment on L929 cells (L929 cells), the “effect on mTNF-α tumoricidal (cytolytic) activity” value (shortened to “effect on mTNF-α tumoricidal”) is reported as “none of these lectins had any effect”.

In the case of “Bio-GG-CGPKDTPEGAELKPWYC (Biotin-GGCGPKDTPEGAELKPWYC-NH2; disulfide 3-19 (inferred)) [mTNFα-tip]”, the trypanocidal activity entry in experiment [1] (T. brucei brucei) is “shows a trypanocidal activity”. The trypanocidal specific activity in experiment [1] (in vitro trypanocidal assay, average specificity) is reported as 4×10^2 -4×10^3 U/mg of peptide. Also, in the experiment with L929 cells (L929 cells, similar dose response curve, data not shown), the “tumoricidal activity of tip peptide” value is reported as “exerts no tumoricidal activity”.

Regarding `[Cl-].[Li+]` [LiCl, reference compound], in experiment [1] (1 μg/ml of LiCl co-treatment), the “potentiation of trypanocidal effect of TNF-α” value turned out to be 100 fold. Further, the mortality of trypanosomes result in experiment [1] (T. brucei brucei, 5 h, data not shown) is “by itself had no effect on the survival of the trypanosomes”. For the same molecule, the “effect … of TNF-α / tip peptide” value in experiment [1] is given as “synergistically potentiates the trypanocidal effect of mTNF-α”.

In the case of `CC(=O)N[C@H]1[C@H](O[C@H]2[C@H](O)[C@@H](NC(C)=O)C(O)O[C@@H]2CO)O[C@H](CO)[C@@H](O)[C@@H]1O` (stereo partly drawn) [N,N'-diacetylchitobiose, reference compound], the “effect … of TNF-α / tip peptide” value in experiment [1] is “potently inhibits the trypanocidal activity; also recorded: potent inhibition of the mTNF-α trypanocidal effect; also recorded: trypanocidal activity of the peptide can also be inhibited”. Besides, the “effect on mTNF-α tumoricidal” value in the experiment on L929 cells (L929 cells) is “not the cytolytic activity; also recorded: not affected”.

B1: P106A mTNF-α: Pro106 of mTNF-α is changed to an Ala residue (protein)
chain: LRSSSQNSSDKPVAHVVANHQVEEQLEWLSQRANALLANGMDLKDNQLVVPADGLYLVYSQVLFKGQGCPDYVLLTHTVSRFAISYQEKVNLLSAVKSPCPKDTAEGAELKPWYEPIYLGGVFQLEKGDQLSAEVNLPKYLDFAESGQVYFGVIAL
Take B1: the IL6 concentration in experiment [2] (333 pg/ml, experiment 1) is 720 pg/mL; in experiment [2] (333 pg/ml, experiment 2), 1300 pg/mL; in experiment [2] (1000 pg/ml, experiment 1), 560 pg/mL; in experiment [2] (1000 pg/ml, experiment 2), 750 pg/mL; in experiment [2] (1666 pg/ml, experiment 1), 800 pg/mL; in experiment [2] (1666 pg/ml, experiment 2), 1300 pg/mL. The IL8 concentration amounted to 300 pg/mL in experiment [3] (333 pg/ml, experiment 1, 24 hours); 400 pg/mL in experiment [3] (333 pg/ml, experiment 2, 24 hours); 1100 pg/mL in experiment [3] (1000 pg/ml, experiment 1, 24 hours); 1500 pg/mL in experiment [3] (1000 pg/ml, experiment 2, 24 hours); 250 pg/mL in experiment [3] (1666 pg/ml, experiment 1, 24 hours); 900 pg/mL in experiment [3] (1666 pg/ml, experiment 2, 24 hours). Also, the “fold less IL8 induced than wild type TNF-α” value in experiment [3] (hMVECb, 24 hours) is reported as “about 3 fold”. For the same molecule, the “IL8 induction compared with wild type” value in experiment [3] (human endothelial brain cells) was “induce consistently less human interleukin 8 (IL8)”.

B2: soluble p55 hTNF-α receptor: soluble p55 hTNF-α receptor protein (protein)
chain: DSVCPQGKYIHPQNNSICCTKCHKGTYLYNDCPGPGQDTDCRECESGSFTASENHLRHCLSCSKCRKEMGQVEISSCTVDRDTVCGCRKNQYRHYWSENLFQCFNCSLCLNGTVHLSCQEKQNTVCTCHAGFFLRENECVSCSNCKKSLECTKLCLPQIEN
As for B2, the “Δ: % inhibition of trypanocidal activity by the addition of the p55 hTNFα receptor protein” value in experiment [1] (mTNF-α 100 pg/ml) was found to be 15 ± 5%; in experiment [1] (mTNF-α 1000 pg/ml), 10 ± 4%; in experiment [1] (mTNF-α 10000 pg/ml), 7 ± 5%. Also, the “effect … of TNF-α / tip peptide” value in experiment [1] is recorded as “hardly influenced”. In addition, the “Δ: % inhibition of tumoricidal activity by the addition of the p55 hTNFα receptor protein” value with L929 cells (mTNF-α 100 pg/ml) came to 100 ± 5%; in the experiment on L929 cells (mTNF-α 1000 pg/ml), 100 ± 4%; in the experiment with L929 cells (mTNF-α 10000 pg/ml), 5 ± 2%. In the experiment with L929 cells (L929 cells), the “effect on mTNF-α tumoricidal” value is reported as “potently inhibits the mTNF-α tumoricidal activity”.
